{
  "source": "patent US9677079B2",
  "about": "“Yeast cells expressing amyloid beta and uses therefor” (Whitehead Insititute for Biomedical Research, priority 2010, dated 2017)",
  "key": {"[1]": {"tested_on": "strain expressing toxic levels of Aβ (ssAβ 1-42 strain)", "test": "Clioquinol rescue: growth in liquid culture of ssAβ 1-42 strain and YFP control strain (Bioscreen, OD600)", "assay_type": "cell-based, Saccharomyces cerevisiae", "details": "FIG. 4", "protocol": "To further test the effect of clioquinol, a control strain and a strain expressing toxic levels of Aβ were grown in liquid culture with various concentrations of the compound.\nTo generate ssAβ1-42 screening strains the ssAβ1-42 construct was moved to a pAG Gal p305 expression vector (S. Alberti, A. D. Gitler, S. Lindquist, A suite of Gateway cloning vectors for highthroughput genetic analysis in Saccharomyces cerevisiae. Yeast 24, 913 (2007)). The plasmid was digested using BstX1, gel purified and transformed into W303. The transformation was carried out in duplicate and the level of growth of 16 transformants each was tested on synthetic deficient media lacking leucine with galactose. Two strains from the independent transformations where chosen as screening strains based on their robust yet intermediate toxicity that would allow for the identification of both suppressors and enhancers. […] The control strain for wild type yeast growth is carrying a Gal inducible YFP integrated in the same fashion as the ssAβ1-42 constructs. For spotting assays strains were grown over night at 30° C. in 3 ml SD media lacking the relevant amino acids and containing glucose. Cell concentrations (OD600) were adjusted in a 96-well plate to that of the strain with the lowest concentration. Cells were then 5 fold serially diluted and spotted on SD media containing glucose (Uninduced) and galactose (Induced). Plates were incubated at 30° C. for 2 (glucose) or 3 days (galactose).\nYeast strains were grown overnight to saturation in synthetic medium with glucose as the carbon source after inoculation from a colony. These cultures were used to inoculate raffinose cultures. Raffinose cultures in log phase growth (OD600 0.7-0.9) were diluted to an OD600 of 0.03 in synthetic medium with galactose as the carbon source, and […] of the cell suspension was distributed to each well of a Bioscreen plate. […] of clioquinol (Sigma C8133, ˜95%), dissolved in DMSO at 100 times the final intended concentration, was added to each well. […]"}, "[2]": {"tested_on": "GAL1-induced expression (GAL controlled YFP)", "test": "GAL1-induced expression measured by flow cytometry of GAL controlled YFP", "assay_type": "cell-based, Saccharomyces cerevisiae", "details": "flow cytometry of GAL controlled YFP (data not shown)"}},
  "note": "“Also recorded” adds a separate entry of the source.",
  "data": [
    {"smiles": "Oc1c(I)cc(Cl)c2cccnc12", "note": "[clioquinol]", "values": [
      {"measurement": "toxicity at higher concentrations", "setting": "[1]; higher concentrations, ssAβ 1-42 strain and YFP control strain", "value": "toxic to both strains"},
      {"measurement": "growth at the optimal concentration compared with control strain", "setting": "[1]; optimal concentration, control strain expressing YFP", "value": "nearly as robust as that of the control strain; also recorded: restored growth levels to those of a control strain expressing YFP"},
      {"measurement": "growth of the Aβ expressing strain (dose dependence of rescue)", "setting": "[1]; ssAβ 1-42 strain in inducing (galactose) media, various concentrations", "value": "improved the growth of the Aβ expressing strain in a dose dependent manner; also recorded: rescued growth levels in a dose dependent manner"},
      {"measurement": "effect on GAL1-induced expression", "setting": "[2]", "value": "did not diminish GAL1-induced expression"}
    ]}
  ]
}
